Data from PubChem BioAssay (NCI).
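All cell lines were grown in 96-well plates and treated with compound for 48 hours. GI50: concentration for 50% inhibition of growth. TGI marks complete inhibition of growth.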

Assays:
Assay in all cases: inhibition of tumour cell growth, NCI panel, 48 h
K-562 leukemia = tested on: K-562 leukemia
UO-31 renal = tested on: UO-31 renal
UACC-62 melanoma = tested on: UACC-62 melanoma
HCT-15 colon = tested on: HCT-15 colon
HOP-92 NSCLC = tested on: HOP-92 NSCLC
KM12 colon = tested on: KM12 colon
M14 melanoma = tested on: M14 melanoma
COLO 205 colon = tested on: COLO 205 colon
SK-OV-3 ovarian = tested on: SK-OV-3 ovarian
SF-295 CNS = tested on: SF-295 CNS
PC-3 prostate = tested on: PC-3 prostate
RPMI-8226 leukemia = tested on: RPMI-8226 leukemia
A549 NSCLC = tested on: A549 NSCLC
UACC-257 melanoma = tested on: UACC-257 melanoma
SF-539 CNS = tested on: SF-539 CNS
HT29 colon = tested on: HT29 colon
NCI-H522 lung = tested on: NCI-H522 lung
MDA-MB-231 breast = tested on: MDA-MB-231 breast
SNB-19 CNS = tested on: SNB-19 CNS
SR leukemia = tested on: SR leukemia
CCRF-CEM leukemia = tested on: CCRF-CEM leukemia
LOX IMVI melanoma = tested on: LOX IMVI melanoma
HOP-62 NSCLC = tested on: HOP-62 NSCLC
DU-145 prostate = tested on: DU-145 prostate
ACHN renal = tested on: ACHN renal
TK-10 renal = tested on: TK-10 renal
NCI-H460 lung = tested on: NCI-H460 lung
CAKI-1 renal = tested on: CAKI-1 renal
SK-MEL-2 melanoma = tested on: SK-MEL-2 melanoma
HL-60(TB) leukemia = tested on: HL-60(TB) leukemia
HCC-2998 colon = tested on: HCC-2998 colon
NCI-H226 lung = tested on: NCI-H226 lung
IGROV1 ovarian = tested on: IGROV1 ovarian
U251 CNS = tested on: U251 CNS
OVCAR-5 ovarian = tested on: OVCAR-5 ovarian
MDA-MB-435 = tested on: MDA-MB-435
EKVX NSCLC = tested on: EKVX NSCLC
OVCAR-8 ovarian = tested on: OVCAR-8 ovarian
SW-620 colon = tested on: SW-620 colon
SF-268 CNS = tested on: SF-268 CNS
786-0 renal = tested on: 786-0 renal
OVCAR-4 ovarian = tested on: OVCAR-4 ovarian
SN12C renal = tested on: SN12C renal
NCI-H23 lung = tested on: NCI-H23 lung
NCI/ADR-RES ovarian = tested on: NCI/ADR-RES ovarian
OVCAR-3 ovarian = tested on: OVCAR-3 ovarian
T-47D breast = tested on: T-47D breast
SK-MEL-5 melanoma = tested on: SK-MEL-5 melanoma
MOLT-4 leukemia = tested on: MOLT-4 leukemia
RXF 393 renal = tested on: RXF 393 renal
A498 renal = tested on: A498 renal
SK-MEL-28 melanoma = tested on: SK-MEL-28 melanoma
MCF7 breast = tested on: MCF7 breast
HCT-116 colon = tested on: HCT-116 colon
HS 578T breast = tested on: HS 578T breast
MALME-3M melanoma = tested on: MALME-3M melanoma

O=c1c2ccccc2c(C=NCCNCCO)c2oc3ccccc3n12
GI50 (K-562 leukemia): 4.31 µM
TGI (K-562 leukemia): 16.4 µM
GI50 (UO-31 renal): 9.58 µM
TGI (UO-31 renal): 22.5 µM
GI50 (UACC-62 melanoma): 11.6 µM
TGI (UACC-62 melanoma): 23.8 µM
GI50 (HCT-15 colon): 10.1 µM
TGI (HCT-15 colon): 23.9 µM
GI50 (HOP-92 NSCLC): 11.7 µM
TGI (HOP-92 NSCLC): 26.9 µM
GI50 (KM12 colon): 10.4 µM
TGI (KM12 colon): 22.1 µM
GI50 (M14 melanoma): 15.6 µM
TGI (M14 melanoma): 29.5 µM
GI50 (COLO 205 colon): 3.27 µM
TGI (COLO 205 colon): 15.8 µM
GI50 (SK-OV-3 ovarian): 3.58 µM
TGI (SK-OV-3 ovarian): 15.9 µM
GI50 (SF-295 CNS): 3.72 µM
TGI (SF-295 CNS): 13.6 µM
GI50 (PC-3 prostate): 13.9 µM
TGI (PC-3 prostate): 34.1 µM
GI50 (RPMI-8226 leukemia): 7.67 µM
TGI (RPMI-8226 leukemia): 31.6 µM
GI50 (A549 NSCLC): 4.03 µM
TGI (A549 NSCLC): 17 µM
GI50 (UACC-257 melanoma): 12.1 µM
TGI (UACC-257 melanoma): 26.7 µM
GI50 (SF-539 CNS): 3.51 µM
TGI (SF-539 CNS): 12.2 µM
GI50 (HT29 colon): 3.33 µM
TGI (HT29 colon): 16.5 µM
GI50 (NCI-H522 lung): 16.7 µM
TGI (NCI-H522 lung): 37.7 µM
GI50 (MDA-MB-231 breast): 11.5 µM
TGI (MDA-MB-231 breast): 24.4 µM
GI50 (SNB-19 CNS): 6.33 µM
TGI (SNB-19 CNS): 19.6 µM
GI50 (SR leukemia): 2.48 µM
TGI (SR leukemia): 6.62 µM
GI50 (CCRF-CEM leukemia): 1.47 µM
TGI (CCRF-CEM leukemia): 16.1 µM
GI50 (LOX IMVI melanoma): 5.83 µM
TGI (LOX IMVI melanoma): 18.4 µM
GI50 (HOP-62 NSCLC): 13 µM
TGI (HOP-62 NSCLC): 25.6 µM
GI50 (DU-145 prostate): 12.1 µM
TGI (DU-145 prostate): 24.5 µM
GI50 (ACHN renal): 3.54 µM
TGI (ACHN renal): 14.9 µM
GI50 (TK-10 renal): 2.73 µM
TGI (TK-10 renal): 9.61 µM
GI50 (NCI-H460 lung): 2.9 µM
TGI (NCI-H460 lung): 11 µM
GI50 (CAKI-1 renal): 4.08 µM
TGI (CAKI-1 renal): 15.5 µM
GI50 (SK-MEL-2 melanoma): 21.3 µM
TGI (SK-MEL-2 melanoma): 50.6 µM
GI50 (HL-60(TB) leukemia): 4.63 µM
TGI (HL-60(TB) leukemia): 20.7 µM
GI50 (HCC-2998 colon): 13.1 µM
TGI (HCC-2998 colon): 25.8 µM
GI50 (NCI-H226 lung): 11.9 µM
TGI (NCI-H226 lung): 29 µM
GI50 (IGROV1 ovarian): 7.64 µM
TGI (IGROV1 ovarian): 24 µM
GI50 (U251 CNS): 6.24 µM
TGI (U251 CNS): 19.5 µM
GI50 (OVCAR-5 ovarian): 15.7 µM
TGI (OVCAR-5 ovarian): 29.1 µM
GI50 (MDA-MB-435): 12.3 µM
TGI (MDA-MB-435): 24.7 µM
GI50 (EKVX NSCLC): 9.3 µM
TGI (EKVX NSCLC): 21.2 µM
GI50 (OVCAR-8 ovarian): 4.88 µM
TGI (OVCAR-8 ovarian): 19.7 µM
GI50 (SW-620 colon): 4.63 µM
TGI (SW-620 colon): 17 µM
GI50 (SF-268 CNS): 3.63 µM
TGI (SF-268 CNS): 15.8 µM
GI50 (786-0 renal): 12.4 µM
TGI (786-0 renal): 24.9 µM
GI50 (OVCAR-4 ovarian): 16.6 µM
TGI (OVCAR-4 ovarian): 36 µM
GI50 (SN12C renal): 4.34 µM
TGI (SN12C renal): 18.3 µM
GI50 (NCI-H23 lung): 19.5 µM
TGI (NCI-H23 lung): 33.6 µM
GI50 (NCI/ADR-RES ovarian): 13.8 µM
TGI (NCI/ADR-RES ovarian): 26.7 µM
GI50 (OVCAR-3 ovarian): 11.7 µM
TGI (OVCAR-3 ovarian): 24 µM
GI50 (T-47D breast): 4.12 µM
TGI (T-47D breast): 17.9 µM
GI50 (SK-MEL-5 melanoma): 7.16 µM
TGI (SK-MEL-5 melanoma): 20.1 µM
GI50 (MOLT-4 leukemia): 1.73 µM
TGI (MOLT-4 leukemia): 11.7 µM
GI50 (RXF 393 renal): 4.96 µM
TGI (RXF 393 renal): 22.6 µM

CC(=O)OC1C(O)COC(Oc2c(C)c3c4c(c2O)[C@@H](C)CC[C@@H]4[C@@H](C)C[C@H]3C=C(C)C)C1O (stereo partly drawn)
GI50 (K-562 leukemia): 10.3 µM
TGI (K-562 leukemia): 30.2 µM
GI50 (A498 renal): 16.6 µM
TGI (A498 renal): 32.7 µM
GI50 (UO-31 renal): 30 µM
TGI (UO-31 renal): > 100 µM
GI50 (UACC-62 melanoma): 16.3 µM
TGI (UACC-62 melanoma): 36 µM
GI50 (HCT-15 colon): 15.2 µM
TGI (HCT-15 colon): 31.7 µM
GI50 (HOP-92 NSCLC): 15.6 µM
TGI (HOP-92 NSCLC): 32 µM
GI50 (KM12 colon): 14.8 µM
TGI (KM12 colon): 30.8 µM
GI50 (M14 melanoma): 14.6 µM
TGI (M14 melanoma): 31.5 µM
GI50 (COLO 205 colon): 21.5 µM
TGI (COLO 205 colon): 50.5 µM
GI50 (SK-MEL-28 melanoma): 22.3 µM
TGI (SK-MEL-28 melanoma): 48.2 µM
GI50 (SK-OV-3 ovarian): 19.6 µM
TGI (SK-OV-3 ovarian): 39.2 µM
GI50 (SF-295 CNS): 18.1 µM
TGI (SF-295 CNS): 35.7 µM
GI50 (PC-3 prostate): 11.3 µM
TGI (PC-3 prostate): 26.3 µM
GI50 (RPMI-8226 leukemia): 13.3 µM
TGI (RPMI-8226 leukemia): 33.2 µM
GI50 (A549 NSCLC): 16 µM
TGI (A549 NSCLC): 40.3 µM
GI50 (NCI-H522 lung): 30.9 µM
TGI (NCI-H522 lung): > 100 µM
GI50 (SNB-19 CNS): 23.4 µM
TGI (SNB-19 CNS): 49.6 µM
GI50 (SR leukemia): 3.87 µM
TGI (SR leukemia): 19.1 µM
GI50 (CCRF-CEM leukemia): 7.42 µM
TGI (CCRF-CEM leukemia): 27.4 µM
GI50 (LOX IMVI melanoma): 18 µM
TGI (LOX IMVI melanoma): 35.4 µM
GI50 (HOP-62 NSCLC): 15.4 µM
TGI (HOP-62 NSCLC): 32.5 µM
GI50 (DU-145 prostate): 12.8 µM
TGI (DU-145 prostate): 29 µM
GI50 (ACHN renal): 18.7 µM
TGI (ACHN renal): 42.5 µM
GI50 (TK-10 renal): 14.7 µM
TGI (TK-10 renal): 29 µM
GI50 (NCI-H460 lung): 16.3 µM
TGI (NCI-H460 lung): 47.1 µM
GI50 (CAKI-1 renal): 16.9 µM
TGI (CAKI-1 renal): 32.2 µM
GI50 (SK-MEL-2 melanoma): 42.7 µM
TGI (SK-MEL-2 melanoma): > 100 µM
GI50 (HCC-2998 colon): 18.7 µM
TGI (HCC-2998 colon): 43.6 µM
GI50 (NCI-H226 lung): 24.5 µM
TGI (NCI-H226 lung): 64.8 µM
GI50 (IGROV1 ovarian): 28.9 µM
TGI (IGROV1 ovarian): > 100 µM
GI50 (U251 CNS): 18 µM
TGI (U251 CNS): 35 µM
GI50 (MCF7 breast): 17.2 µM
TGI (MCF7 breast): > 100 µM
GI50 (OVCAR-5 ovarian): 23.2 µM
TGI (OVCAR-5 ovarian): 47.9 µM
GI50 (MDA-MB-435): 24 µM
TGI (MDA-MB-435): 67.4 µM
GI50 (OVCAR-8 ovarian): 23 µM
TGI (OVCAR-8 ovarian): 49.8 µM
GI50 (SF-268 CNS): 12.9 µM
TGI (SF-268 CNS): 32.7 µM
GI50 (786-0 renal): 27 µM
TGI (786-0 renal): > 100 µM
GI50 (HCT-116 colon): 21.1 µM
TGI (HCT-116 colon): > 100 µM
GI50 (OVCAR-4 ovarian): 16.8 µM
TGI (OVCAR-4 ovarian): 47.1 µM
GI50 (SN12C renal): 19.3 µM
TGI (SN12C renal): 44.5 µM
GI50 (NCI-H23 lung): 17.9 µM
TGI (NCI-H23 lung): 37.5 µM
GI50 (NCI/ADR-RES ovarian): 15.4 µM
TGI (NCI/ADR-RES ovarian): 32.5 µM
GI50 (OVCAR-3 ovarian): 13.5 µM
TGI (OVCAR-3 ovarian): 28.2 µM
GI50 (T-47D breast): 39.4 µM
TGI (T-47D breast): > 100 µM
GI50 (HS 578T breast): 16.8 µM
TGI (HS 578T breast): 37.2 µM
GI50 (SK-MEL-5 melanoma): 15.3 µM
TGI (SK-MEL-5 melanoma): 32.4 µM
GI50 (MALME-3M melanoma): 15.3 µM
TGI (MALME-3M melanoma): 30.1 µM
GI50 (MOLT-4 leukemia): 4.89 µM
TGI (MOLT-4 leukemia): 28.5 µM
GI50 (RXF 393 renal): 7.81 µM
TGI (RXF 393 renal): 25.4 µM
